{"source": "paper PMC9820592", "about": "“Novel Chiral Ru(II) Complexes as Potential c-myc G-quadruplex DNA Stabilizers Inducing DNA Damage to Suppress Triple-Negative Breast Cancer Progression” (International Journal of Molecular Sciences, 2022)", "key": {"[1]": {"tested_on": "A549 cells", "test": "MTT assay, A549 cells", "type": "cell-based, human", "settings": "72 h, read-out: Inhibitory Effect (IC50/μM) A549", "procedure": "(§1) Liver cancer HepG2 cells, lung cancer A549 cells, breast cancer MCF-7 and MDA-MB-231 cells, human nasopharyngeal carcinoma CNE-1 cells, and human immortalized keratinocyte HaCaT cells were seeded in 96-well plates (5 × 10^3 cells per well) and cultured at 37 °C and 5% CO2 for 24 h. Cells were treated with different concentrations of the complexes (0, 1.5625, 3.125, 6.25, 12.5, 25, 50, and 100 µM) for 72 h. After adding 20 µL MTT (5 mg/mL) solution to each well, the cells were incubated for 4 h, and then 150 µL DMSO was added to each well. The optical density of each well was detected by a microplate reader at a wavelength of 570 nm. The cell survival rate (%) = A(experimental group)/A(control group) × 100%, and the IC50 value was analyzed and calculated based on the survival rate."}, "[2]": {"tested_on": "MDA-MB-231 cells", "test": "ICP detection of Ru content in cells", "type": "cell-based, human", "settings": "24 h, control 0.4", "procedure": "MDA-MB-231 cells were seeded in 10 cm cell culture dishes. After cell adherence, the cells were treated with the drug (0, 2.5, 5, and 10 μM) for 24 h. After 24 h, the cells were washed with PBS three times and collected by trypsin. The number of collected cells was counted by a cell counter. Then, the cells were digested in 1 mL HNO3 solution by microwave digestion at 120 °C for 3 min, and 1 mL of this solution was transferred to a 5 mL volumetric flask, diluted with distilled water to volume, and mixed. The Ru content of these solutions was analyzed by an ICP optical emission spectrometer (NCS, Plasma 2000). All measurements were repeated three times."}, "[3]": {"tested_on": "MDA-MB-231 cells", "test": "EdU proliferation assay", "type": "cell-based, human", "settings": "control 50.2%", "procedure": "The inhibitory effect of the chiral DPPZ-based Ru(II) complexes (Λ/Δ−1−3) was assessed against different human tumor cancer cells, such as breast cancer MCF-7, MDA-MB-231, lung cancer A549, liver carcinoma HepG2, nasopharyngeal carcinoma CNE-1, and human normal keratinocyte HaCaT cells, by MTT assay. […] Moreover, the inhibition of MDA-MB-231 cell proliferation by Δ−3 was detected by using an EdU (5-ethynyl-2′-deoxyuridine) staining kit, and EdU was incorporated into newly synthesized DNA in the sample cells. The red fluorescent azide is small enough to diffuse freely through native tissues and DNA, and it covalently cross-links to the EdU in a “click” chemistry reaction."}, "[4]": {"tested_on": "MDA-MB-231 cells", "test": "Comet assay", "type": "cell-based, human", "settings": "5 and 10 μM", "procedure": "DNA damage was detected by single-cell gel electrophoresis by using the Comet assay kit (Trevigen). MDA-MB-231 cells were added to a culture dish containing the medium. After treatment with different concentrations of the complexes (0, 5, and 10 μM) at 37 °C for 72 h, the cells were collected and washed with PBS three times. A solution of the cell suspension and melted low-melting-point agarose gel was mixed at a volume ratio of 1:7, and the equilateral sample was immediately transferred to a Comet Slide TM slide. The slides were washed twice with PBS, placed into an electrophoresis tank containing comet electrophoresis solution, and electrophoresed at 25 V for 30 min. After electrophoresis, the slides were washed twice with PBS. Finally, the cells were stained with EB and observed under a fluorescence microscope. Cells were randomly selected from each slide to take photos, and the tail moment was analyzed."}, "[5]": {"tested_on": "MCF-7 cells", "test": "MTT assay, MCF-7 cells", "type": "cell-based, human", "settings": "72 h, read-out: Inhibitory Effect (IC50/μM) MCF-7", "procedure": "as §1"}, "[6]": {"tested_on": "c-myc G-quadruplex DNA", "test": "PCR-stop assay", "type": "biochemical, human", "settings": "Taq polymerase", "procedure": "In this study, c-myc G4 DNA and its reverse complementary sequence c-myc rev were heated to 95 °C for 5 min, allowed to cool to room temperature, and incubated at 4 °C overnight. The system was supplemented with dNTPs and Taq polymerase for PCR amplification; heated at 95 °C for 3 min, 94 °C for 30 s, and 58 °C for 30 s, with an extension at 72 °C for 30 s (30 cycles); and analyzed by 15% nondenatured polyacrylamide gel electrophoresis and silver staining."}, "[7]": {"tested_on": "HUVECs", "test": "Tube formation assay", "type": "cell-based, human", "settings": "10 μM, 6 h, VEGF 200 ng/mL", "procedure": "Dissolving matrigel (4 °C, 24 h) was used to coat prechilled 96-well plates (50 μL/well, 37 °C, for at least 60 min). Then, the unsolid fluid was removed, and HUVECs at the density of 3 × 10^4 were cultured in DMEM with VEGF (200 ng/mL) containing the different concentrations of Δ−3 (0, 5, and 10 μM) for 6 h."}, "[8]": {"tested_on": "HaCaT cells", "test": "MTT assay, normal HaCaT keratinocytes", "type": "cell-based", "settings": "72 h, normal human keratinocytes, read-out: Inhibitory Effect (IC50/μM) HaCaT", "procedure": "as §1"}, "[9]": {"tested_on": "subintestinal vessels (SIVs)", "test": "Angiogenic assay in Tg (fli1: EGFP) zebrafish", "type": "in vivo", "settings": "compared with control group", "procedure": "The zebrafish model of transplanted breast cancer was constructed in accordance with the methods in the literature. Juvenile 48 h old breast cancer model zebrafish were placed in 48-well plates (n = 10), and 0.2 mL aquaculture water without or with Δ−3 (0, 2.5, 5, and 10 μM) was added for culture. Images were captured every 24 h using a fluorescence microscope to study the inhibitory effect of Δ−3 on zebrafish with breast cancer. In addition, the mean number of sprout and mean length of sprout in subintestinal vessels (SIVs) were analyzed by ImageProPlus software. The ethical protocols for the in vivo research on zebrafish complied with relevant laws."}, "[10]": {"tested_on": "γ-H2AX", "test": "γ-H2AX immunofluorescence", "type": "cell-based, human", "procedure": "MDA-MB-231 cells were inoculated in a 6-well plate containing a cover glass. On the second day, the cells were treated with different concentrations of the complex (0, 5, and 10 μM) for 24 h. The cells were fixed with 4% paraformaldehyde for 20 min, and then blocked with 5% BSA for 0.5 h at room temperature. The 1:500 anti-γH2AX antibody was diluted with 5% FBS and incubated for 1 h. The cells were incubated with lgG (H + L) for 0.5 h and treated with DAPI for 5 min. The cover glass was then transferred to a specified microscope slide and photographed with laser confocal microscopy. The antibodies used in immunofluorescence to determine invasion and metastasis were anti-paxillin antibody (ab32115), Fluor 488-conjugated IgG (H + L) (Proteintech), and rhodamine phalloidin (Amanita phalloidin, cytoskeleton)."}, "[11]": {"tested_on": "c-myc protein", "test": "c-myc protein expression in MDA-MB-231 cells", "type": "cell-based, human", "settings": "40 μΜ, 72 h"}}, "note": "Values joined by “and” are separate entries in the source; they are usually repeats but may differ in a detail not shown here. Equal values may be shown once.", "data": [{"substance": "Δ-[Ru(bpy)2(3-NBEDPPZ)](ClO4)2 [Δ−3]", "values": [{"measurement": "IC50", "setting": "[1]", "result": "24.7 ± 0.28", "unit": "µM"}, {"measurement": "Ru content in cells", "setting": "[2]; 2.5 μM", "result": 0.52, "unit": "ng/mL per 1 × 10^4 cells"}, {"measurement": "Ru content in cells", "setting": "[2]; 5 μM", "result": 1.82, "unit": "ng/mL per 1 × 10^4 cells"}, {"measurement": "Ru content in cells", "setting": "[2]; 10 μM", "result": 2.91, "unit": "ng/mL per 1 × 10^4 cells"}, {"measurement": "proliferation rate (EdU)", "setting": "[3]; 10 μM", "result": 34.9, "unit": "%"}, {"measurement": "proliferation rate (EdU)", "setting": "[3]; 20 μM", "result": 22.0, "unit": "%"}, {"measurement": "proliferation rate (EdU)", "setting": "[3]; 40 μM", "result": 5.1, "unit": "%"}, {"measurement": "DNA damage (comet appearance)", "setting": "[4]", "result": "cometary shapes appeared"}, {"measurement": "IC50", "setting": "[5]", "result": "90.6 ± 6.34", "unit": "µM"}, {"measurement": "minimum concentration necessary for effective inhibition (PCR products)", "setting": "[6]", "result": 2.5, "unit": "µM"}, {"measurement": "tubular structures of HUVECs on Matrigel", "setting": "[7]", "result": "sparse and incomplete"}, {"measurement": "IC50", "setting": "[8]", "result": "70.9 µM and 71 µM"}, {"measurement": "number and length of SIVs", "setting": "[9]", "result": "significantly decreased"}, {"measurement": "γ-H2AX production", "setting": "[10]; 5 μM", "result": "Green fluorescence was observed"}, {"measurement": "γ-H2AX production", "setting": "[10]; 10 μM", "result": "the DNA damage was serious"}, {"measurement": "expression of the c-myc protein", "setting": "[11]", "result": "effectively downregulated"}]}]}
